Measured values taken from patent US9255100B2 (BAYER INTELLECTUAL PROPERTY GMBH, priority 2010, dated 2016).

Each compound was assayed against T1, N-terminally GST-tagged human full length recombinant Mps-1 kinase (Homo sapiens, UniProt P33981) (assay: Mps-1 kinase assay (TR-FRET)). Settings: Mps1 IC50 [nM], 10 μM ATP, 1 μM peptide substrate, 60 min at 22° C.
T1 construct: N-terminally GST-tagged human full length recombinant Mps-1 kinase; purchased Invitrogen, Karslruhe, Germany PV4071
T1 sequence (P33981 1-857): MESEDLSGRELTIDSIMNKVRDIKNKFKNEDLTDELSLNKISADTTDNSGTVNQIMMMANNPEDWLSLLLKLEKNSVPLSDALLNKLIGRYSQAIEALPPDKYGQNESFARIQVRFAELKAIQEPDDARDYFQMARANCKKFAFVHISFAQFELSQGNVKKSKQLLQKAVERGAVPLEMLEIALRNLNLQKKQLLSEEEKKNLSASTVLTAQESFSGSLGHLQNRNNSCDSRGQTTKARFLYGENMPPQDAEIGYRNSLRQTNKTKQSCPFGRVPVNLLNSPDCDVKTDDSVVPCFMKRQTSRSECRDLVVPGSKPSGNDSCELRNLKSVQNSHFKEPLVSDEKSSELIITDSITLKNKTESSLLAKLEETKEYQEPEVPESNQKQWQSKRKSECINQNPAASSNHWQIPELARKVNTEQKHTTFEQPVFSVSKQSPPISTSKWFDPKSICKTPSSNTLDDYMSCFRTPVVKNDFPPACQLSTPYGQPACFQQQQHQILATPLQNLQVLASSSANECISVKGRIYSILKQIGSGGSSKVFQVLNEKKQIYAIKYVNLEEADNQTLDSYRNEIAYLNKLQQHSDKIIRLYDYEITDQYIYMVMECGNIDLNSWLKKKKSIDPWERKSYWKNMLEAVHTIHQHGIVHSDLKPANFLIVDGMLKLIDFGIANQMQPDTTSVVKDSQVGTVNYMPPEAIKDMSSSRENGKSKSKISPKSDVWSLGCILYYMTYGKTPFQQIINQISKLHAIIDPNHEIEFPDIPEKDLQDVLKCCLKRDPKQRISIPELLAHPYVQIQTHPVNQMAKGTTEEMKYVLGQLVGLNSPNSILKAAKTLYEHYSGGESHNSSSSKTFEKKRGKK
Type: biochemical
Outline: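 Compounds were tested against recombinant full-length Mps-1 bearing an N-terminal GST tag, about 1 nM final, with a biotinylated amide-capped peptide as substrate. Detection reagents were then bound for 1 h at 22° C and the product read by TR-FRET.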

| SMILES | IC50 [nM] |
| --- | --- |
| CCNC(=O)c1ccc(-c2cnc3c(NCCC(F)(F)F)cc(Oc4cccc(F)c4)nn23)cc1C [Example 552, N-ethyl-4-{6-(3-fluorophenoxy)-8-[(3,3,3-trifluoropropyl)amino]imidazo[1,2-b]pyridazin-3-yl}-2-methylbenzamide] | 0.2 |
| Cc1cc(-c2cnc3c(NCCC(F)(F)F)cc(Oc4cccc(F)c4)nn23)ccc1C(=O)NC(C)C [Example 553, 4-{6-(3-fluorophenoxy)-8-[(3,3,3-trifluoropropyl)amino]imidazo[1,2-b]pyridazin-3-yl}-N-isopropyl-2-methylbenzamide] | 0.7 |
| Cc1cc(-c2cnc3c(NCCC(F)(F)F)cc(Oc4cccc(F)c4)nn23)ccc1C(=O)NCCC(F)(F)F [Example 554, 4-{6-(3-fluorophenoxy)-8-[(3,3,3-trifluoropropyl)amino]imidazo[1,2-b]pyridazin-3-yl}-2-methyl-N-(3,3,3-trifluoropropyl)benzamide] | 1.6 |
| Cc1cc(-c2cnc3c(NCCC(F)(F)F)cc(Oc4cccc(F)c4)nn23)ccc1C(=O)NCC(F)(F)C(F)(F)F [Example 555, 4-{6-(3-fluorophenoxy)-8-[(3,3,3-trifluoropropyl)amino]imidazo[1,2-b]pyridazin-3-yl}-2-methyl-N-(2,2,3,3,3-pentafluoropropyl)benzamide] | 9.4 |
| Cc1cc(-c2cnc3c(NCCC(F)(F)F)cc(Oc4cccc(F)c4)nn23)ccc1C(=O)NCC(F)F [Example 556, N-(2,2-difluoroethyl)-4-{6-(3-fluorophenoxy)-8-[(3,3,3-trifluoropropyl)amino]imidazo[1,2-b]pyridazin-3-yl}-2-methylbenzamide] | 0.3 |
| Cc1cc(-c2cnc3c(NCCC(F)(F)F)cc(Oc4cccc(F)c4)nn23)ccc1C(=O)NCC(C)C [Example 557, 4-{6-(3-fluorophenoxy)-8-[(3,3,3-trifluoropropyl)amino]imidazo[1,2-b]pyridazin-3-yl}-N-isobutyl-2-methylbenzamide] | 2.2 |
| CNC(=O)c1ccc(-c2cnc3c(NCCC(F)(F)F)cc(Oc4ccc(Cl)cc4)nn23)cc1C [Example 558, 4-{6-(4-chlorophenoxy)-8-[(3,3,3-trifluoropropyl)amino]imidazo[1,2-b]pyridazin-3-yl}-N, 2-dimethylbenzamide] | 0.3 |
| CCNC(=O)c1ccc(-c2cnc3c(NCCC(F)(F)F)cc(Oc4ccc(Cl)cc4)nn23)cc1C [Example 559, 4-{6-(4-chlorophenoxy)-8-[(3,3,3-trifluoropropyl)amino]imidazo[1,2-b]pyridazin-3-yl}-N-ethyl-2-methylbenzamide] | 0.6 |
| CNC(=O)c1ccc(-c2cnc3c(NCCC(F)(F)F)cc(Oc4ccc(O)cc4F)nn23)cc1C [Example 560, 4-{6-(2-fluoro-4-hydroxyphenoxy)-8-[(3,3,3-trifluoropropyl)amino]imidazo[1,2-b]pyridazin-3-yl}-N,2-dimethylbenzamide] | 0.1 |
| CCNC(=O)c1ccc(-c2cnc3c(NCCC(F)(F)F)cc(Oc4ccc(O)cc4F)nn23)cc1C [Example 561, N-ethyl-4-{6-(2-fluoro-4-hydroxyphenoxy)-8-[(3,3,3-trifluoropropyl)amino]imidazo[1,2-b]pyridazin-3-yl}-2-methylbenzamide] | 0.6 |
| CNC(=O)c1ccc(-c2cnc3c(NCCN4CCOCC4)cc(Oc4ccc(F)c(F)c4)nn23)cc1C [Example 562, 4-[6-(3,4-difluorophenoxy)-8-{[2-(morpholin-4-yl)ethyl]amino}imidazo[1,2-b]pyridazin-3-yl]-N,2-dimethylbenzamide] | 2.7 |
| CNC(=O)c1ccc(-c2cnc3c(NCCN4CCOCC4)cc(Oc4ccccc4C)nn23)cc1C [Example 563, N,2-dimethyl-4-[6-(2-methylphenoxy)-8-{[2-(morpholin-4-yl)ethyl]amino}imidazo[1,2-b]pyridazin-3-yl]benzamide] | 4.3 |
| CNC(=O)c1ccc(-c2cnc3c(NCCN4CCOCC4)cc(Oc4ccc(OC)cc4F)nn23)cc1C [Example 565, 4-[6-(2-fluoro-4-methoxyphenoxy)-8-{[2-(morpholin-4-yl)ethyl]amino}imidazo[1,2-b]pyridazin-3-yl]-N,2-dimethylbenzamide] | 3.5 |
| CNC(=O)c1ccc(-c2cnc3c(NCCN4CCOCC4)cc(Oc4cc(F)ccc4C)nn23)cc1C [Example 566, 4-[6-(5-fluoro-2-methylphenoxy)-8-{[2-(morpholin-4-yl)ethyl]amino}imidazo[1,2-b]pyridazin-3-yl]-N,2-dimethylbenzamide] | 1.7 |
| CNC(=O)c1ccc(-c2cnc3c(NCC4CCOCC4)cc(Oc4ccc(F)c(F)c4)nn23)cc1C [Example 567, 4-{6-(3,4-difluorophenoxy)-8-[(tetrahydro-2H-pyran-4-ylmethyl)amino]imidazo[1,2-b]pyridazin-3-yl}-N,2-dimethylbenzamide] | < 1 |
| CNC(=O)c1ccc(-c2cnc3c(NCC4CCOCC4)cc(Oc4ccccc4C)nn23)cc1C [Example 568, N,2-dimethyl-4-{6-(2-methylphenoxy)-8-[(tetrahydro-2H-pyran-4-ylmethyl)amino]imidazo[1,2-b]pyridazin-3-yl}benzamide] | < 1 |
| CNC(=O)c1ccc(-c2cnc3c(NCC4CCOCC4)cc(Oc4cccc(F)c4)nn23)cc1C [Example 569, 4-{6-(3-fluorophenoxy)-8-[(tetrahydro-2H-pyran-4-ylmethyl)amino]imidazo[1,2-b]pyridazin-3-yl}-N,2-dimethylbenzamide] | < 1 |
| CNC(=O)c1ccc(-c2cnc3c(NCC4CCOCC4)cc(Oc4ccc(OC)cc4)nn23)cc1C [Example 570, 4-{6-(4-methoxyphenoxy)-8-[(tetrahydro-2H-pyran-4-ylmethyl)amino]imidazo[1,2-b]pyridazin-3-yl}-N,2-dimethylbenzamide] | < 1 |
| CNC(=O)c1ccc(-c2cnc3c(NCC4CCOCC4)cc(Oc4ccc(OC)cc4F)nn23)cc1C [Example 571, 4-{6-(2-fluoro-4-methoxyphenoxy)-8-[(tetrahydro-2H-pyran-4-ylmethyl)amino]imidazo[1,2-b]pyridazin-3-yl}-N,2-dimethylbenzamide] | < 1 |
| CNC(=O)c1ccc(-c2cnc3c(NCC4CCOCC4)cc(Oc4cc(F)ccc4C)nn23)cc1C [Example 572, 4-{6-(5-fluoro-2-methylphenoxy)-8-[(tetrahydro-2H-pyran-4-ylmethyl)amino]imidazo[1,2-b]pyridazin-3-yl}-N,2-dimethylbenzamide] | < 1 |
| CNC(=O)c1ccc(-c2cnc3c(NCC4CCOCC4)cc(Oc4ccc(OC)c(F)c4)nn23)cc1C [Example 573, 4-{6-(3-fluoro-4-methoxyphenoxy)-8-[(tetrahydro-2H-pyran-4-ylmethyl)amino]imidazo[1,2-b]pyridazin-3-yl}-N,2-dimethylbenzamide] | < 1 |
| CNC(=O)c1ccc(-c2cnc3c(NCCC(F)(F)F)cc(Oc4cccc(F)c4)nn23)cc1C [Example 575, 4-{6-(3-fluorophenoxy)-8-[(3,3,3-trifluoropropyl)a-mino]imidazo[1,2-b]pyridazin-3-yl}-N,2-dimethylbenzamide] | < 1 |
| CNC(=O)c1ccc(-c2cnc3c(NCCC(F)(F)F)cc(Oc4ccc(OC)cc4F)nn23)cc1C [Example 576, 4-{6-(2-fluoro-4-methoxyphenoxy)-8-[(3,3,3-trifluoropropyl)a-mino]imidazo[1,2-b]pyridazin-3-yl}-N,2-dimethylbenzamide] | < 1 |
| CNC(=O)c1ccc(-c2cnc3c(NCCC(F)(F)F)cc(Oc4cc(F)ccc4C)nn23)cc1C [Example 577, 4-{6-(5-fluoro-2-methylphenoxy)-8-[(3,3,3-trifluoropropyl)a-mino]imidazo[1,2-b]pyridazin-3-yl}-N,2-dimethylbenzamide] | 1.4 |
| CNC(=O)c1ccc(-c2cnc3c(NCC(F)F)cc(Oc4ccc(OC)cc4F)nn23)cc1C [Example 580, 4-{8-[(2,2-difluoroethyl)amino]-6-(2-fluoro-4-meth-oxyphenoxy)imidazo[1,2-b]pyridazin-3-yl}-N,2-dimethylbenzamide] | < 1 |
| CNC(=O)c1ccc(-c2cnc3c(NCCOC)cc(Oc4cccc(F)c4F)nn23)cc1C [Example 581, 4-{6-(2,3-difluoro-phenoxy)-8-[(2-methoxyethyl)a-mino]imidazo[1,2-b]pyridazin-3-yl}-N,2-dimethylbenzamide] | < 1 |
| CNC(=O)c1ccc(-c2cnc3c(NCCOC)cc(Oc4ccc(F)c(F)c4)nn23)cc1C [Example 582, 4-{6-(3,4-difluorophenoxy)-8-[(2-methoxyethyl)a-mino]imidazo[1,2-b]pyridazin-3-yl}-N,2-dimethylbenzamide] | 3.8 |
